Laboratory results as given in patent publication US9511064B2, “Combination therapy for the treatment of cancer and immunosuppression” (Basilea Pharmaceutica AG, priority 2012, dated 2016).
Like-named read-outs stand apart in the source and are kept apart here.

What was measured:
mouse mast cell line 6.5 = test: AlamarBlue conversion cell proliferation assay, 6.5 cell line; format: cell-based
Description: (§1) The in vitro anti-proliferative activity of compounds of formula (I), metformin and combinations thereof is tested in an AlamarBlue conversion cell proliferation assay (Promega) on HL60 tumor cells and the mouse mast cell line 6.5 (Colombi et al., Oncogene 2011, 30:1551-65). Cells are seeded into 96-well microtiter plates (seeding cell density is 7,000 cells per well in 150 uL Iscove's medium) and test compounds are added (compounds of formula (I) are added from a 10 mM stock solution in DMSO, metformin from a freshly prepared 1 M solution in culture medium). Plates are incubated for 3 days at 37°, 5% CO2 and proliferation is determined by AlamarBlue staining (0.1 vol % added to cultures and incubated for further 4-5 hours). The conversion of AlamarBlue is proportional to live cell number and is read with a fluorescence plate reader (Ex/Em 535/595 nm). Growth is normalized to the untreated controls.

HL60 tumor cells = test: AlamarBlue conversion cell proliferation assay, HL60 cell line; format: cell-based
Description: as §1

[1] = read-out: concentration that inhibits the proliferation of cells by approximately 50% when combined with 4 mM metformin, 6.5 cell line, 3 days incubation
[2] = read-out: concentration that inhibits the proliferation of cells by approximately 50% when combined with 4 mM metformin, HL60 cell line, 3 days incubation
[3] = combined with 4 mM metformin, 3 days incubation, read-out: concentration that inhibits the proliferation of cells by approximately 50% when combined with 4 mM metformin, 6.5 cell line
[4] = combined with 4 mM metformin, 3 days incubation, read-out: concentration that inhibits the proliferation of cells by approximately 50% when combined with 4 mM metformin, HL60 cell line

SMILES	IC50 (mouse mast cell line 6.5; [1]) [µM]	IC50 (HL60 tumor cells; [2]) [µM]	IC50 (mouse mast cell line 6.5; [3]) [µM]	IC50 (HL60 tumor cells; [4]) [µM]
COC(=O)[C@H]1[C@H]2C[C@@H]3c4[nH]c5cc(OC)ccc5c4CCN3C[C@H]2C[C@@H](OC(=O)c2cc(OC)c(OC(=O)OCc3ccncc3)c(OC)c2)[C@@H]1OC [Example 6, methyl (1R,15S,17R,18R,19S,20S)-17-[(3,5-dimethoxy-4-{[(pyridin-4-ylmethoxy)carbonyl]oxy}phenyl)carbonyloxy]-6,18-dimethoxy-3,13-diazapentacyclo[11.8.0.0^2,10.0^4,9.0^15,20]henicosa-2(10),4,6,8-tetraene-19-carboxylate]	2.5	2.5	–	–
COC(=O)[C@H]1[C@H]2C[C@@H]3c4[nH]c5cc(OC)ccc5c4CCN3C[C@H]2C[C@@H](OC(=O)c2cc(OC)c(OC(=O)OCc3cccnc3)c(OC)c2)[C@@H]1OC [Example 7, methyl (1R,15S,17R,18R,19S,20S)-17-[(3,5-dimethoxy-4-{[(pyridin-3-ylmethoxy)carbonyl]oxy}phenyl)carbonyloxy]-6,18-dimethoxy-3,13-diazapentacyclo[11.8.0.0^2,10.0^4,9.0^15,20]henicosa-2(10),4,6,8-tetraene-19-carboxylate]	–	–	2.5	2
COC(=O)[C@H]1[C@H]2C[C@@H]3c4[nH]c5cc(OC)ccc5c4CCN3C[C@H]2C[C@@H](OC(=O)c2cc(OC)c(OC(=O)OCc3cc(OC)cc(OC)c3)c(OC)c2)[C@@H]1OC [Example 8, methyl (1R,15S,17R,18R,19S,20S)-17-{[4-({[(3,5-dimethoxyphenyl)methoxy]carbonyl}oxy)-3,5-dimethoxyphenyl]carbonyloxy}-6,18-dimethoxy-3,13-diazapentacyclo[11.8.0.0^2,10.0^4,9.0^15,20]henicosa-2(10),4,6,8-tetraene-19-carboxylate]	–	–	5	4
COC(=O)[C@H]1[C@H]2C[C@@H]3c4[nH]c5cc(OC)ccc5c4CCN3C[C@H]2C[C@@H](OC(=O)c2cc(OC)c(OC(=O)OCc3ccc(Cl)cc3)c(OC)c2)[C@@H]1OC [Example 9, methyl (1R,15S,17R,18R,19S,20S)-17-{[4-({[(4-chlorophenyl)methoxy]carbonyl}oxy)-3,5-dimethoxyphenyl]carbonyloxy}-6,18-dimethoxy-3,13-diazapentacyclo[11.8.0.0^2,10.0^4,9.0^15,20]henicosa-2(10),4,6,8-tetraene-19-carboxylate]	–	–	4	4
COC(=O)[C@H]1[C@H]2C[C@@H]3c4[nH]c5cc(OC)ccc5c4CCN3C[C@H]2C[C@@H](OC(=O)c2cc(OC)c(OC(=O)OCc3cc(Cl)cc(Cl)c3)c(OC)c2)[C@@H]1OC [Example 10, methyl (1R,15S,17R,18R,19S,20S)-17-{[4-({[(3,5-dichlorophenyl)methoxy]carbonyl}oxy)-3,5-dimethoxyphenyl]carbonyloxy}-6,18-dimethoxy-3,13-diazapentacyclo[11.8.0.0^2,10.0^4,9.0^15,20]henicosa-2(10),4,6,8-tetraene-19-carboxylate]	–	–	1	1
CCOC(=O)Oc1c(OC)cc(C(=O)O[C@@H]2C[C@@H]3CN4CCc5c([nH]c6cc(OC(=O)OC(C)(C)C)ccc56)[C@H]4C[C@@H]3[C@H](C(=O)OC)[C@H]2OC)cc1OC [Example 12, methyl (1R,15S,17R,18R,19S,20S)-6-{[(tert-butoxy)carbonyl]oxy}-17-({4-[(ethoxycarbonyl)oxy]-3,5-dimethoxyphenyl}carbonyloxy)-18-methoxy-3,13-diazapentacyclo[11.8.0.0^2,10.0^4,9.0^15,20]henicosa-2(10),4,6,8-tetraene-19-carboxylate]	1.5	1.5	–	–
CCOC(=O)Oc1c(OC)cc(C(=O)O[C@@H]2C[C@@H]3CN4CCc5c([nH]c6cc(O)ccc56)[C@H]4C[C@@H]3[C@H](C(=O)OC)[C@H]2OC)cc1OC [Example 13, methyl (1R,15S,17R,18R,19S,20S)-17-({4-[(ethoxycarbonyl)oxy]-3,5-dimethoxyphenyl}carbonyloxy)-6-hydroxy-18-methoxy-3,13-diazapentacyclo[11.8.0.0^2,10.0^4,9.0^15,20]henicosa-2(10),4,6,8-tetraene-19-carboxylate]	–	–	1	2
CCOC(=O)Oc1c(OC)cc(C(=O)O[C@@H]2C[C@@H]3CN4CCc5c([nH]c6cc(OC(C)=O)ccc56)[C@H]4C[C@@H]3[C@H](C(=O)OC)[C@H]2OC)cc1OC [Example 14, methyl (1R,15S,17R,18R,19S,20S)-6-(acetyloxy)-17-({4-[(ethoxycarbonyl)oxy]-3,5-dimethoxyphenyl}carbonyloxy)-18-methoxy-3,13-diazapentacyclo[11.8.0.0^2,10.0^4,9.0^15,20]henicosa-2(10),4,6,8-tetraene-19-carboxylate]	–	–	1.5	2
CCOC(=O)Oc1c(OC)cc(C(=O)O[C@@H]2C[C@@H]3CN4CCc5c([nH]c6cc(OC(=O)c7ccccc7)ccc56)[C@H]4C[C@@H]3[C@H](C(=O)OC)[C@H]2OC)cc1OC [Example 15, methyl (1R,15S,17R,18R,19S,20S)-6-(benzoyloxy)-17-({4-[(ethoxycarbonyl)oxy]-3,5-dimethoxyphenyl}carbonyloxy)-18-methoxy-3,13-diazapentacyclo[11.8.0.0^2,10.0^4,9.0^15,20]henicosa-2(10),4,6,8-tetraene-19-carboxylate]	–	–	1.5	2
CCOC(=O)Oc1c(OC)cc(C(=O)O[C@@H]2C[C@@H]3CN4CCc5c([nH]c6cc(OC(=O)CN)ccc56)[C@H]4C[C@@H]3[C@H](C(=O)OC)[C@H]2OC)cc1OC [Example 16, methyl (1R,15S,17R,18R,19S,20S)-6-[(2-aminoacetyl)oxy]-17-({4-[(ethoxycarbonyl)oxy]-3,5-dimethoxyphenyl}carbonyloxy)-18-methoxy-3,13-diazapentacyclo[11.8.0.0^2,10.0^4,9.0^15,20]henicosa-2(10),4,6,8-tetraene-19-carboxylate]	1	2	–	–
CCOC(=O)Oc1c(OC)cc(C(=O)O[C@@H]2C[C@@H]3CN4CCc5c([nH]c6cc(OC(=O)CNC(C)=O)ccc56)[C@H]4C[C@@H]3[C@H](C(=O)OC)[C@H]2OC)cc1OC [Example 17, methyl (1R,15S,17R,18R,19S,20S)-6-[(2-acetamidoacetyl)oxy]-17-({4-[(ethoxycarbonyl)oxy]-3,5-dimethoxyphenyl}carbonyloxy)-18-methoxy-3,13-diazapentacyclo[11.8.0.0^2,10.0^4,9.0^15,20]henicosa-2(10),4,6,8-tetraene-19-carboxylate]	–	–	1	1.5
CCOC(=O)Oc1c(OC)cc(C(=O)O[C@@H]2C[C@@H]3CN4CCc5c([nH]c6cc(OC(=O)CNC(=O)c7ccccc7)ccc56)[C@H]4C[C@@H]3[C@H](C(=O)OC)[C@H]2OC)cc1OC [Example 18, methyl (1R,15S,17R,18R,19S,20S)-17-({4-[(ethoxycarbonyl)oxy]-3,5-dimethoxyphenyl}carbonyloxy)-18-methoxy-6-{[2-(phenylformamido)acetyl]oxy}-3,13-diazapentacyclo[11.8.0.0^2,10.0^4,9.0^15,20]henicosa-2(10),4,6,8-tetraene-19-carboxylate]	–	–	1	1.5
COC(=O)[C@H]1[C@H]2C[C@@H]3c4[nH]c5cc(OC)ccc5c4CCN3C[C@H]2C[C@@H](OC(=O)c2cc(OC)c(OC(=O)Cc3ccccc3)c(OC)c2)[C@@H]1OC [Example 20, methyl (1R,15S,17R,18R,19S,20S)-17-({3,5-dimethoxy-4-[(2-phenylacetyl)oxy]phenyl}carbonyloxy)-6,18-dimethoxy-3,13-diazapentacyclo[11.8.0.0^2,10.0^4,9.0^15,20]henicosa-2(10),4,6,8-tetraene-19-carboxylate]	5	5	–	–
COC(=O)[C@H]1[C@H]2C[C@@H]3c4[nH]c5cc(OC)ccc5c4CCN3C[C@H]2C[C@@H](OC(=O)c2cc(OC)c(OC(=O)OCc3ccccc3)c(OC)c2)[C@@H]1OC [Example 21, methyl (1R,15S,17R,18R,19S,20S)-17-[(4-{[(benzyloxy)carbonyl]oxy}-3,5-dimethoxyphenyl)carbonyloxy]-6,18-dimethoxy-3,13-diazapentacyclo[11.8.0.0^2,10.0^4,9.0^15,20]henicosa-2(10),4,6,8-tetraene-19-carboxylate]	2	3.5	–	–
COC(=O)[C@H]1[C@H]2C[C@@H]3c4[nH]c5cc(OC)ccc5c4CCN3C[C@H]2C[C@@H](OC(=O)c2cc(OC)c(OC(=O)OCc3cccc(Br)c3)c(OC)c2)[C@@H]1OC [Example 31]	–	–	2	2
COC(=O)[C@H]1[C@H]2C[C@@H]3c4[nH]c5cc(OC)ccc5c4CCN3C[C@H]2C[C@@H](OC(=O)c2cc(OC)c(OC(=O)OCc3cccc(C(F)(F)F)c3)c(OC)c2)[C@@H]1OC [Example 32]	–	–	2	2
COC(=O)[C@H]1[C@H]2C[C@@H]3c4[nH]c5cc(OC)ccc5c4CCN3C[C@H]2C[C@@H](OC(=O)c2cc(OC)c(OC(=O)OCc3cc(F)cc(F)c3)c(OC)c2)[C@@H]1OC [Example 33]	–	–	2	2
